Molecules are shown by their SMILES. “Also recorded” adds a separate entry of the source.

One data set concerns SHP-1. Nature of the data set: SHP-1 activity in macrophages under proinflammatory stimulation and cancer cell ligation. The data set is classed as cell-based. To be noted: IFNγ/LPS stimulation, cancer cell ligation. The protocol:
(§1) FIGS. 2A-2G depict that the inhibition of SHP-1 enhances macrophage proinflammatory response, antigen presentation and phagocytosis in a tumor milieu. FIG. 2A and FIG. 2B depict that SHP-1 activity in macrophages is triggered by proinflammatory stimulation and the extracellular cancer cell ligation (“touching”) of macrophages (green bar in FIG. 2A). […] The SHP-2 inhibitor SHP099 (1 μg/ml) was used in assays. FIG. 2C depicts the inhibition of SHP-1 by TPI-1 dose-dependently recovers IFNγ/LPS-induced activation of STAT1 (p-STAT1) and Erk1/2 (p-Erk1/2) de-activated by SHP-1 (red line). FIG. 2D and FIG. 2E depict that the inhibition of SHP-1 in macrophages by TPI-1 enhances production of proinflammatory cytokines (FIG. 2D) and expression of immunogenic antigen presentation machinery (FIG. 2E) by IFNγ/LPS in a tumor milieu. […] The SHP-1 and SHP-2 inhibitors TPI-1 and SHP099, respectively, was used at 1 μg/ml in assays.
FIGS. 3A-3E depict modulation of SHP-1 activity in proinflammatory macrophages in cancer. Macrophages co-cultured with cancer cells were stimulated with IFNγ/LPS or TLR agonists (αTLR) comprising CpG, polycytidylic acid (i.e., PolyI:C) and R848 (each 0.4 μg/ml) for 30 min (37 °C) in the presence or the absence of different SHP-1 or SHP-2 inhibitor or activator, followed by cell lysis and assays of PTP activity. FIG. 3A depicts SHP-1 activity regulation mechanisms. […] FIG. 3E depicts that PKCθ negatively regulates SHP-1 activity at a moderate level.
In addition to TPI-1, several other SHP-1 inhibitors such as PTP inhibitor-I, PTP inhibitor-III, and recently reported vitamin E (9, 10) and phomoxanthone A and B (P×A and P×B) (11) were tested. Given that PKCθ modulates SHP-1 activity through phosphorylating Ser591 (12, 13), PKCθ inhibitor and activator were also tested in various assays.

The subject of the next data set is p-STAT1 and p-Erk1/2. Briefly: STAT1 and Erk1/2 phosphorylation in macrophages with cancer cell ligation. The data set is classed as cell-based. To be noted: IFNγ/LPS. The protocol:
as §1
Macrophages with high SHP-1 activity in a tumor milieu diminish production of proinflammatory cytokines but produce high IL-10 (see FIG. 2D, blue bar) under stimulation of IFNγ/LPS. This reinforcement of immunosuppression was reversed by SHP-1 inhibition. […]

For the next data set, the system named is MC38 solid tumor. Nature of the data set: Cytokine secretion of excised MC38 tumor cubes (ELISA). Particulars: 100 nM, 24 h. Details: species or system murine. The text has this: FIGS. 6A-6D depict that the inhibition of SHP-1 promotes anti-tumor effects or pro-tumor effects under different circumstances. FIG. 6A depicts that intratumoral macrophages upregulate expression of iRs (Pir-B, Siglec E, F and G, and SIRPα) along with tumor progression to late-stage large sizes. KPC pancreatic tumors of small sizes (<150 mm^3) and those grown to larger sizes (>800 mm^3) were dissociated to single cells, followed by flow cytometry analyses for cell surface protein expression on macrophages (gated F4/80+). FIG. 6B depicts that the inhibition of SHP-1 alone promotes TME immunosuppression. Excised MC38 solid tumor cubes were treated with SHP-1 inhibitor TPI-1 (100 nM) or vehicle (DMSO) in a cell culture setting. After 24 h, tumor secreting cytokines into the culture medium were assayed by ELISA.

The test system of data set [1] is MC38 colorectal carcinoma. Briefly: TME analysis of MC38 colorectal carcinoma in mice. The data set is classed as in vivo, murine. An excerpt:
(§2) FIGS. 8A-8E depict that SHP-1 inhibition combined with TLR agonists (αTLR) reprograms TME of MC38 colorectal carcinoma. FIG. 8A depicts MC38 tumor treatment scheme.

In a further data set the test system is MC38 tumor. Nature of the data set: Ex vivo treatment of excised MC38 tumor. Details: species or system murine. Particulars: TPI-1 and αTLR.
Source text: as §2
Consistent with these changes, TME analyses of MC38 colorectal and KPC pancreatic tumors treated with TLR agonist combined with TPI-1 or RT (FIGS. 8A-8E & 9) found rapid infiltration of inflammatory neutrophils (ROShigh) and tumor-killing NK cells (Granzhigh), and the strong antigen presentation also brought about the expansion of tumor-specific (p15E-reactive) cytotoxic T cells harboring high tumoricidal capacity (Granzhigh). The immunosuppressive compartments in the same TME, including MDSC and Treg, were reduced. […] Ex vivo infusion of TLR agonists and TPI-1 together, but not each individually, into excised tumors induced the similar response of T cell expansion.

Data set [2] is described as follows: Study-2: acute adverse toxicity. The data set is classed as in vivo, mice. To be noted: intermittent iSHP-1 therapies. The protocol: FIGS. 12A-12D depict that pulse-intermittent inhibition of SHP-1 (iSHP-1) combined with TLR agonists (αTLR) and/or anti-PD-L1 checkpoint inhibitor effectively treat multi-lesion MC38 colorectal carcinoma. FIG. 12A depicts the treatment scheme. Mice with bilateral MC38 tumors (s.c.) were treated for two days with TPI-1 and various combinations via i.p. or s.c. A 5-day intermittent period was given before the 2nd cycle of treatments to mice that had residue tumors. FIGS. 12B and 12C depict tumor control efficacies measured by tumor volume changes (FIG. 12B) and TME reprogramming, indicating increases in tumor killing immune populations while reduction of immunosuppression. FIG. 12D depicts acute adverse toxicity, measured by body weight, proteinuria, serum ALT level and splenomegaly.

Data set [3] concerns MC38 colorectal carcinoma. Nature of the data set: αTLR-induced inflammation in MC38 tumor-bearing mice with or without TPI-1. The data set is classed as in vivo, C57BL6 mice. The text has this: FIGS. 17A-17C depict inhibition of SHP-1 (iShp1) abrogates tumor-imposed immune suppression under pro-inflammatory challenges. FIG. 17A depicts neutrophil infiltration in different organs measured at various time point following αTLR challenge. FIG. 17B depicts neutrophil infiltration in tumor tissues in mice treated with αTLR plus TPI-1. FIG. 17C depicts the phenotype of intratumoral macrophages.
MC38 colorectal carcinoma was established (via subcutaneous administration) in syngeneic C57BL6 mice. After tumor sizes reached more than 200 mm^3, the tumor-bearing mice were induced systemic inflammatory condition by TLR agonists (αTLR, CpG/PolyIC/R848, each 25 μg) administrated via subcutaneous administration at the location distal from MC38 tumor. A group of mice were concurrently administrated with TPI-1 (1 mg/kg) via subcutaneous administration to achieve systemic SHP-1 inhibition.

On to `O=C1C=CC(=O)C(c2cc(Cl)ccc2Cl)=C1` [TPI-1], for which, in the data set on SHP-1, the “SHP-1 activity in macrophages (effect in words)” value is recorded as “potently inhibited SHP-1 activity at low concentrations”. Also, in the data set on p-STAT1 and p-Erk1/2, the “STAT-1 and Erk1/2 phosphorylation” value is on record as “dose-dependently released cancer cell-imposed inhibition”. Further, in the data set on MC38 solid tumor, the “tumor production of IL-6” value is “increased tumor production of IL-6 and IL-10”; the “tumor production of IL-10” value was “increased tumor production of IL-6 and IL-10”. The intratumoral macrophages result in data set [1] (TPI-1 and αTLR) is reported as “marked reduction of intratumoral macrophages”. Also, the TME reprogramming result in data set [1] (TPI-1 combined with αTLR) is “reduction of tumor cells, and increases in immune infiltration especially tumoricidal CD8 T cells, neutrophils (PMN) and NK cells, while reduction of macrophages, MDSC and Treg”. Moreover, in the data set with MC38 tumor, the “CD8 T cell expansion in excised tumor” value is on record as “induced CD8 T cell expansion”. Besides, the acute adverse toxicity result in data set [2] was “did not incur acute adverse toxicity”. Besides, in data set [3] (TPI-1 1 mg/kg s.c. with αTLR), the “TNFα and IL12 expression of intratumoral macrophages” value is “increased TNFα and IL12 expression”. Moreover, the “neutrophil infiltration in tumor” value in data set [3] (TPI-1 1 mg/kg s.c. with αTLR (CpG/PolyIC/R848, each 25 μg), 1 mg/kg) is on record as “enabled neutrophil infiltration upon αTLR; also recorded: increased neutrophil infiltration in tumor tissues”.

The values above are taken from patent US20260325465A1, “SHP-1 INHIBITORS FOR TREATING CANCER” (MDX MANAGEMENT LLC, priority 2022, published 2026).
